Data taken from US10703760B2, “Morphic forms of marizomib and uses thereof” (Celgene International II Sàrl, priority 2016, dated 2020).

Test: Salt screen of marizomib
Format: physicochemical
Details: sulfonic acids and mineral acids
Procedure: For crash cooling (CC), a solution of MRZ and coformer was prepared at elevated temperature in a given solvent mixture. The vial was capped and immediately placed in a refrigerator or freezer. For fast cooling (FC), solutions of MRZ and coformer were prepared at elevated temperatures in given solvents or solvent mixtures. The vial was capped and placed on a bench top at room temperature to quickly cool. For slow cooling (SC), a solution of MRZ and coformer was prepared at elevated temperature in a given solvent mixture. The vial was capped and left in a heating block at elevated temperature. The heater then was turned off for the sample to cool down naturally to room temperature. For slow evaporation (SE), solutions of MRZ and coformer were generated at ambient temperature in a given solvent or solvent mixture. The solutions were allowed to evaporate partially or to dryness from a loosely capped vial at ambient conditions. Slurry experiments were carried out by making saturated solutions containing excess solid. The slurries were agitated at ambient or elevated temperatures for a specified amount of time. The solids present were recovered via positive pressure filtration. Solvent assisted grinding experiments were carried out by mixing MRZ and coformer in an agate mortar and pestle. Aliquots of solvent were added and the mixture ground manually for specified amount of time. […]

With `C[C@@]12OC(=O)[C@]1([C@@H](O)[C@@H]1C=CCCC1)NC(=O)[C@@H]2CCCl` [marizomib] the Crystalline salt formation was “No crystalline salt of marizomib was produced”.
